# Experimental data as given in ChEMBL document CHEMBL4330101, “Identification of BR101549 as a lead candidate of non-TZD PPARγ agonist for the treatment of type 2 diabetes: Proof-of-concept evaluation and SAR” (Bioorg Med Chem Lett, 2019).
# Key:
# [1] = Stability in human liver microsomes assessed as parent compound remaining after 30 mins; format: ADME, Microsome; details: read-out: Stability
# [2] = molecular target: T1, Peroxisome proliferator-activated receptor gamma (Homo sapiens, UniProt P37231); assay: Agonist activity at human PPARgamma
# T1 sequence (P37231 whole entry): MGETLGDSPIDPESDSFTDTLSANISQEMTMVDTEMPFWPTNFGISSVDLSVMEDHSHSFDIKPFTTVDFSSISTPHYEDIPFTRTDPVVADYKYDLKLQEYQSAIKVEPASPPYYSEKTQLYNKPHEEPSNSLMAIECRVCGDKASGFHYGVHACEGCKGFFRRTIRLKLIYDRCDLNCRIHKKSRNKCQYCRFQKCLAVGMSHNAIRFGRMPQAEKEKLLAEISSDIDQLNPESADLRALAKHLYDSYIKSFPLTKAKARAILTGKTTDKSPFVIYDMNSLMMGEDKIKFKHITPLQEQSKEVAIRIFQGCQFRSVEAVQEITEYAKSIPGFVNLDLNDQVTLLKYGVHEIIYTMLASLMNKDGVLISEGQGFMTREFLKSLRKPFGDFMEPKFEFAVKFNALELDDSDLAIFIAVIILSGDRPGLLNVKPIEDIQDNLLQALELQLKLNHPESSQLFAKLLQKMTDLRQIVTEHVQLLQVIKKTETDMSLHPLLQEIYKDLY
# [3] = Stability in mouse liver microsomes assessed as parent compound remaining after 30 mins; format: ADME, Microsome; details: read-out: Stability
# [4] = molecular target: T2, Peroxisome proliferator-activated receptor gamma (Homo sapiens) (UniProt P37231); assay: Agonist activity at human PPARgamma at 1 uM relative to pioglitazone
# T2 sequence (whole entry): T1 sequence (P37231 whole entry)
# [5] = Stability in rat liver microsomes assessed as parent compound remaining after 30 mins; format: ADME, Microsome; details: read-out: Stability
# [6] = Stability in dog liver microsomes assessed as parent compound remaining after 30 mins; format: ADME, Canis lupus familiaris, Microsome; details: read-out: Stability
# [7] = molecular target: T2, Peroxisome proliferator-activated receptor gamma (Homo sapiens); assay: Agonist activity at human PPARgamma at 1 uM relative to telmisartan
# [8] = Drug level in human liver S9 fraction treated with BR101549; format: ADME, subcellular
# [9] = Drug level in rat liver S9 fraction treated with 2-(2-butyl-4-isopropyl-6-oxo-1-((2'-(5-oxo-4,5-dihydro-1,2,4-oxadiazol-3-yl)biphenyl-4-yl)methyl)-1,6-dihydropyrimidin-5-yl)acetic acid; format: ADME, subcellular
# [10] = Drug level in mouse liver S9 fraction treated with 2-(2-butyl-4-isopropyl-6-oxo-1-((2'-(5-oxo-4,5-dihydro-1,2,4-oxadiazol-3-yl)biphenyl-4-yl)methyl)-1,6-dihydropyrimidin-5-yl)acetic acid; format: ADME, subcellular
# [11] = Drug level in mouse liver S9 fraction treated with BR101549; format: ADME, subcellular
# [12] = Drug level in rat liver S9 fraction treated with BR101549; format: ADME, subcellular
# [13] = Drug level in human liver S9 fraction treated with 2-(2-butyl-4-isopropyl-6-oxo-1-((2'-(5-oxo-4,5-dihydro-1,2,4-oxadiazol-3-yl)biphenyl-4-yl)methyl)-1,6-dihydropyrimidin-5-yl)acetic acid; format: ADME, subcellular
# [14] = molecular target: T3, Type-1 angiotensin II receptor (Homo sapiens, UniProt P30556); assay: Antagonist activity at type-1 angiotensin 2 receptor (unknown origin) by calcium mobilizing assay; format: functional
# T3 sequence (P30556 whole entry): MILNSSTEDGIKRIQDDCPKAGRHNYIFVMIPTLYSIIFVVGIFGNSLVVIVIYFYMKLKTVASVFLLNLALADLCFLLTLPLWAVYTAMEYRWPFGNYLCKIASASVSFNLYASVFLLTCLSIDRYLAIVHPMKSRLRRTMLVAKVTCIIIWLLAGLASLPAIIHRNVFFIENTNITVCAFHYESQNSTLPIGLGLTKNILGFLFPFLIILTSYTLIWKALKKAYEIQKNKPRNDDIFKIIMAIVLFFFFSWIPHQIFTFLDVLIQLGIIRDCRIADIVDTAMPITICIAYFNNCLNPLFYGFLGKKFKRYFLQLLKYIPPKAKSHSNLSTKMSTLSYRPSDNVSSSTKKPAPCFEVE
# [15] = Toxicity in db/db mouse assessed as body weight at 20 mg/kg, po administered once daily for 13 days (reference value: 33.5 g); format: organism-based; details: in vivo, 312 h
# Mus musculus = assay: Antidiabetic activity in db/db mouse assessed as random blood glucose level at 20 mg/kg, po administered once daily for 13 days measured post last dose (reference value: 530 mg/dl); format: functional
# [16] = Drug metabolism in human liver S9 fraction assessed as acylglucuronide formation; format: ADME, subcellular
# [17] = Drug metabolism in rat liver S9 fraction assessed as acylglucuronide formation; format: ADME, subcellular
# [18] = Drug metabolism in mouse liver S9 fraction assessed as acylglucuronide formation; format: ADME, subcellular
remaining at 0.5 h [1] [%],EC50 [2] [nM],remaining at 0.5 h [3] [%],max activation [4] [%],Structure (SMILES),also measured
2.8,2250,10.2,116,CCCCOC(=O)Cc1c(C)nc(CCCC)n(Cc2ccc(-c3ccccc3-c3noc(=O)[nH]3)cc2)c1=O,
,2780,,65,CCCCc1nc(C(C)C)c(CC(=O)OCC(F)(F)F)c(=O)n1Cc1ccc(-c2ccccc2-c2noc(=O)[nH]2)cc1,
7.7,,14.6,,CCCCc1nc(C(C)C)c(CC(=O)OC(CC)CC)c(=O)n1Cc1ccc(-c2ccccc2-c2noc(=O)[nH]2)cc1,
32,2530,18.3,99,CC#CCOC(=O)Cc1c(C)nc(CCCC)n(Cc2ccc(-c3ccccc3-c3noc(=O)[nH]3)cc2)c1=O,
11,,28,,CCCCc1nc(C(C)C)c(C(C)C(=O)OCC)c(=O)n1Cc1ccc(-c2ccccc2-c2noc(=O)[nH]2)cc1 (stereo unspecified),remaining at 0.5 h [5]: 19.2%; remaining at 0.5 h [6]: 43.8%; fold change (FC) [7]: 1.3
8.8,1230,13.7,128,CCCCc1nc(C(C)C)c(CC(=O)OCC(C)C)c(=O)n1Cc1ccc(-c2ccccc2-c2noc(=O)[nH]2)cc1,
8.2,,14,,CCCCc1nc(C(C)(C)C)c(CC(=O)OCC)c(=O)n1Cc1ccc(-c2ccccc2-c2noc(=O)[nH]2)cc1,fold change (FC) [7]: < 1
,,,,CCCCc1nc(C(C)C)c(CC(=O)O[C@@H]2O[C@H](C(=O)O)[C@@H](O)[C@H](O)[C@H]2O)c(=O)n1Cc1ccc(-c2ccccc2-c2noc(=O)[nH]2)cc1,Drug metabolism [8]: Metabolite_Notdetected; Drug metabolism [9]: Metabolite_Detected; Drug metabolism [10]: Metabolite_Detected; Drug metabolism [11]: Metabolite_Notdetected; Drug metabolism [12]: Metabolite_Notdetected; Drug metabolism [13]: Metabolite_Detected
,3100,,66,CCCCc1nc(C(C)C)c(CC(=S)N2CCCC2)c(=O)n1Cc1ccc(-c2ccccc2-c2noc(=O)[nH]2)cc1,IC50 [14]: 2.2 nM
7.2,1500,12.6,133,CCCCc1nc(C(C)C)c(CC(=O)OCCC)c(=O)n1Cc1ccc(-c2ccccc2-c2noc(=O)[nH]2)cc1,
13.7,1060,16.4,103,CC#CCOC(=O)Cc1c(C(C)C)nc(CCCC)n(Cc2ccc(-c3ccccc3-c3noc(=O)[nH]3)cc2)c1=O,
46.6,,12.9,,CCCCc1nc(C)c(CC(=O)OCC)c(=O)n1Cc1ccc(-c2ccccc2-c2noc(=O)[nH]2)cc1,remaining at 0.5 h [5]: 14.3%; remaining at 0.5 h [6]: 50.9%; fold change (FC) [7]: 0.93; fold change (FC) ([7]; tested as the 2H-labelled form): 0.82
,,,,CCc1ccc(CCOc2ccc(CC3SC(=O)NC3=O)cc2)nc1 (stereo unspecified) [PIOGLITAZONE],Activity [15]: 32.3 g; Activity (Mus musculus): 213 mg/dL
20,1810,13,101,CCCCc1nc(C)c(CC(=O)OCC2CC2)c(=O)n1Cc1ccc(-c2ccccc2-c2noc(=O)[nH]2)cc1,
46.5,,78.4,,[2H]C([2H])(C(=O)OCC)c1c(C)nc(CCCC)n(Cc2ccc(-c3ccccc3-c3noc(=O)[nH]3)cc2)c1=O,remaining at 0.5 h [5]: 87.3%; remaining at 0.5 h [6]: 86.8%
69.6,7360,47.1,74,CCCCc1nc(C)c(CC(=O)OC)c(=O)n1Cc1ccc(-c2ccccc2-c2noc(=O)[nH]2)cc1,
7.1,1000,21.6,73,CCCCOC(=O)Cc1c(C(C)C)nc(CCCC)n(Cc2ccc(-c3ccccc3-c3noc(=O)[nH]3)cc2)c1=O,
34.5,3310,12.8,62,CCCCc1nc(C)c(CC(=O)OC2CC2)c(=O)n1Cc1ccc(-c2ccccc2-c2noc(=O)[nH]2)cc1,
24.4,2360,16.4,83,CCCCc1nc(C2CC2)c(CC(=O)OC)c(=O)n1Cc1ccc(-c2ccccc2-c2noc(=O)[nH]2)cc1,
10.3,1360,11.4,89,CCCCc1nc(C(C)C)c(CC(=O)OC2CC2)c(=O)n1Cc1ccc(-c2ccccc2-c2noc(=O)[nH]2)cc1,
11.5,1320,8.9,90,CCCCc1nc(C)c(CC(=O)OCC2CCCCC2)c(=O)n1Cc1ccc(-c2ccccc2-c2noc(=O)[nH]2)cc1,
13.3,730,14.6,88,CCCCc1nc(C(C)C)c(CC(=O)OC2CCCCC2)c(=O)n1Cc1ccc(-c2ccccc2-c2noc(=O)[nH]2)cc1,
86.8,10300,100,2,CCCCc1nc(C(C)C)c(CC(=O)O)c(=O)n1Cc1ccc(-c2ccccc2-c2noc(=O)[nH]2)cc1,Drug metabolism [16]: Metabolite_Detected; Drug metabolism [17]: Metabolite_Detected; Drug metabolism [18]: Metabolite_Detected
10.5,2620,9.4,96,CCCCc1nc(C(C)C)c(CC(=O)OC)c(=O)n1Cc1ccc(-c2ccccc2-c2noc(=O)[nH]2)cc1,
17.5,1660,4,114,CCCCc1nc(C)c(CC(=O)OC(C)C)c(=O)n1Cc1ccc(-c2ccccc2-c2noc(=O)[nH]2)cc1,
2.4,1530,7.7,114,CCCCc1nc(C)c(CC(=O)OCC(C)C)c(=O)n1Cc1ccc(-c2ccccc2-c2noc(=O)[nH]2)cc1,
10.6,1090,19.7,54,CCCCCOC(=O)Cc1c(C(C)C)nc(CCCC)n(Cc2ccc(-c3ccccc3-c3noc(=O)[nH]3)cc2)c1=O,
3.9,1000,10.7,98,CCCCc1nc(C)c(CC(=O)OC2CCCCC2)c(=O)n1Cc1ccc(-c2ccccc2-c2noc(=O)[nH]2)cc1,
9.9,2720,14,87,CCCCc1nc(C2CC2)c(CC(=O)OC(C)C)c(=O)n1Cc1ccc(-c2ccccc2-c2noc(=O)[nH]2)cc1,
